Results published in ChEMBL document CHEMBL1151317, “A new bromopyrrole alkaloid and the optical resolution of the racemate from the marine sponge homaxinella sp” (1998).
Converted amounts (≈) assume the structure as drawn.

Test system: P388
Test: Cytotoxicity against mouse P388 cells
Assay type: functional
Settings: read-out: ED50 (the source's name)

COCNC(=O)c1cc(Br)c(Br)[nH]1
EC50: 21.5 µg/mL (≈ 68.9 µM)

COC(=O)CC1CNC(=O)c2cc(Br)c(Br)n21 (racemic)
EC50: 30 µg/mL (≈ 82 µM)

O=C1NCC(O)n2c1cc(Br)c2Br (racemic) [LONGAMIDE]
EC50: > 100 µg/mL
